Results reported in patent US20180125835A1, “Dosage and Use of an A2A Antagonist” (H. Lundbeck A/S, priority 2014, published 2018).

Legend:
[1] = target: T1, A2B (Homo sapiens, UniProt P29275); test: Adenosine receptor binding affinity, human A2B
T1 sequence (P29275 1-332): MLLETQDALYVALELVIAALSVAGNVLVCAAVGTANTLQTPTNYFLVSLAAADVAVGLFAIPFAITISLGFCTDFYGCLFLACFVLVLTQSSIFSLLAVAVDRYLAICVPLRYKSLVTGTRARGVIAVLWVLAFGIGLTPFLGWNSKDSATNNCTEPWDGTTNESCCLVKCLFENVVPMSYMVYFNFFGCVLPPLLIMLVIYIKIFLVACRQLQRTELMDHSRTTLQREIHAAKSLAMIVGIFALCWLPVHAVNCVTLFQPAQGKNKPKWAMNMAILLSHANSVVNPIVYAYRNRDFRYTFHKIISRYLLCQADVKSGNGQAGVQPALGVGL

[2] = target: T2, A1 receptor (Callithrix jacchus, UniProt U3EV00); test: Adenosine receptor binding affinity, marmoset A1
T2 sequence (U3EV00 1-326): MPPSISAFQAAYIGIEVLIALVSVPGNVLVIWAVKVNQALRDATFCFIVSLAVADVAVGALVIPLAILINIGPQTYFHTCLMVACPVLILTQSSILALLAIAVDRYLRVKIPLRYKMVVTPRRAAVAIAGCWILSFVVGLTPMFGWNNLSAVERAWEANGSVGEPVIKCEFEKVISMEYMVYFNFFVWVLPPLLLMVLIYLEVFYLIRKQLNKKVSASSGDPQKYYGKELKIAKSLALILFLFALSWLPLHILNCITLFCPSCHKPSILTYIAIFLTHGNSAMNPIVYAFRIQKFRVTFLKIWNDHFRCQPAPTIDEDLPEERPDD

[3] = target: T3, A1 receptor (Rattus norvegicus, UniProt P25099); test: Adenosine receptor binding affinity, rat A1
T3 sequence (P25099 1-326): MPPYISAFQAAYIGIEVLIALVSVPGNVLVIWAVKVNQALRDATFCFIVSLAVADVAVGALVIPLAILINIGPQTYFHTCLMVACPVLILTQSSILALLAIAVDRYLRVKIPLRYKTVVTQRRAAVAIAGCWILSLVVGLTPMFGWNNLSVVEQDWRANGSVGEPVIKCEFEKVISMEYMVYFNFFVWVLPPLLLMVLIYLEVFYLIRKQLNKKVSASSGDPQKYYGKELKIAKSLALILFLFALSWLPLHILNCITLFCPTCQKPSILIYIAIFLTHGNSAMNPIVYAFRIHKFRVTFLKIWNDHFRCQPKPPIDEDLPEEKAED

[4] = Safety and tolerability study, adverse events (Parts A, B, C)
Description: The study was conducted in three parts: Parts A, B, and C.
Parts A and B were single-dose escalations to determine the safety and tolerability in young healthy men, and in elderly men and women, respectively. Three doses (Cohorts A1 to A3) were tested in healthy young men: 1 mg (N=6), 5 mg (N=6), and 10 mg (N=5); placebo (N=8, total of the three cohorts). […] Two doses (Cohorts B1 and B2) were tested in healthy elderly men and women: 5 mg (N=9 men/4 women), 10 mg (N=4 men/4 women); placebo (N=6 men/4 women, total of the three cohorts). […] A washout period of at least 7 days separated each dose administration.

[5] = target: A2A receptor (Rattus norvegicus, UniProt P30543); test: Striatal A2A occupancy in rats by ex vivo autoradiography; set-up: incubation of the tracer with brain slices obtained from rats dosed with compound 504; from tissue; host or cells: striatum in coronal brain sections of male CD rats (Charles River Japan)
Description: After that the artery and vein blood was collected into tubes containing heparin. Immediately after that the brain was removed and ebbed in OCT compound and frozen in 2-methyl butane cooled with dry ice. The frozen brains were preserved at −80 C until use.
Coronal sections (20 μm) at about bregma 1.2 mm were prepared using a cyromicrotome (Coldtome, set temperature—20 C), Sakura) and placed on a slide glass (Super Frost, Matsunami Glass; 2 or 3 sections per glass). The brain sections collected on the slide glass were preserved at −80 C. Seventy μL of the reaction solution containing the tracer at 0.1 or 0.3 nmol/L was applied on the brain section and incubated at room temperature for the preset time. The reaction solution containing the tracer was handled using siliconized tools. After the incubation with the tracer, the brain section was washed for 1 minute with ice-cold wash solution three times and rinsed with ice-cold water twice. Non-specific binding of the tracer was evaluated by performing the same reaction with the brain section prepared from drug-untreated rats in the presence of 0.1 mmol/1 NECA. The brain section was dried at room temperature, exposed to the imaging plate (BAS-TR2040, Fuji Film) in a cassette, and left in a shield box for about 24 hours. The radioactivity was recorded under the following conditions: Resolution: 50 μm; Gradation: 256; Sensitivity: 10000; Latitude:5.
These plasma samples were used as calibration curve samples.
To pre-treat plasma samples, the internal standard (I.S.) was dissolved in acetonitrile to prepare an I.S. solution at 0.03 μg/mL. Plasma sample was diluted with control plasma whenever necessary. To 0.1 mL of plasma sample, 10 μL of the I.S. solution and 1 mL of 10 mmol/L ammonium acetate were added and stirred to prepare the sample for pretreatment. The sample was pretreated using Oasis HLB Extraction Plate (30 mg, Waters). Each well was serially conditioned with 1 mL of methanol and water. One ml of the sample for pretreatment was loaded on a well. After each well was washed with 1 mL of 5% vol % methanol, the analyte was eluted with 1 mL acethonitrile. The eluate was evaporated under nitrogen gas stream and the residue was redssolved in 0.1 mL of the reconstituted solution. The sample was centrifuged at 4 C, about 1800×G for 5 minutes using […] (0.45 μm hydrophilic PVDF, Whatman). An aliquote of the filtrate was used for analysis.
Calculation of the A2A receptor occupancy in striatum was done using the below formula
Φ(%)=(1−(PSLKW−BG/A)/(PSLctrl−BG/A))*100
Where PSLKW- and PSLctrl are PSL values in the ROI of compound 504-[…] animal, respectively. PLS is Photo stimulated luminescence for detection of tracer and ROI is region of interest for tracer measurement in striatum. […]

[6] = Part A, healthy young men, 1, 5 and 10 mg dose groups
[7] = Part B, healthy elderly, 5 and 10 mg dose groups
[8] = Part C, 5 mg on three occasions

Chain of A2A receptor (P30543 whole entry): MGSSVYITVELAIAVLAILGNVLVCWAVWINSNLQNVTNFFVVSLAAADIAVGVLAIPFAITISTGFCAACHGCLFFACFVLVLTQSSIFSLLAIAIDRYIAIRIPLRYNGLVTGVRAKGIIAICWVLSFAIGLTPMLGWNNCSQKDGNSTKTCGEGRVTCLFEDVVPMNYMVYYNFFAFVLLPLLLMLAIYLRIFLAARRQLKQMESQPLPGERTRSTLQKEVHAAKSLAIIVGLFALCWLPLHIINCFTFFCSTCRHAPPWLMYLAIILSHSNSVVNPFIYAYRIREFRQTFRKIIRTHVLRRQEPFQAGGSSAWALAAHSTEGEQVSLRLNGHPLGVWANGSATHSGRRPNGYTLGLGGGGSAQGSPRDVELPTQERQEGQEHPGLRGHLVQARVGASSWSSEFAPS

For `Cc1ccc(C(=O)Nc2nc(-c3ccco3)c(C(=O)C3CCOCC3)s2)cn1` [Compound 504], the Ki [1] was 33.8 ± 5.91 nM, the Ki [2] was 305 ± 6.6 nM and the Ki [3] was 50.7 ± 3.18 nM. For the same compound, the insomnia ([4]; Part A, 1 mg group) was “not reported”, the subjects reporting insomnia ([4]; Part A, 5 mg group (N=6)) was 4 subjects and the subjects reporting insomnia ([4]; Part A, 10 mg group (N=5)) was 5 subjects. For the same compound, the “number of AEs” value [4, 6] was 36, the “subjects with AEs” value [4, 6] was 13 of the 17 and the “number of severe adverse events” value ([4]; Part B, 10 mg group) was 5. The “subjects with severe adverse events” value ([4]; Part B, 10 mg group) was “Three”, the “dose considered to approach the maximum tolerated dose” value ([4]; Part B, elderly subjects) was about 10 mg and the “number of AEs” value [4, 7] was 53. For the same compound, the “subjects with AEs” value [4, 7] was 16 of the 21, the “events of mild insomnia” value ([4]; Part C) was 12 and the “events of moderate insomnia” value ([4]; Part C) was 2. The “number of moderate AEs” value ([4]; Part C) was 15, the “number of severe AEs” value ([4]; Part C) was 3 and the “number of AEs” value [4, 8] was 90. The “subjects with AEs” value [4, 8] was 11 of the 12, the safety and tolerability ([4]; Part C, 5 mg single doses, fed and fasting states) was “safe and tolerated” and the maximal tolerated dosage ([4]; single dose, insomnia limiting) was 10 mg. The equilibration half-life ([5]; hysteresis evaluation, semi compartment PK model, rat) was under 30 min, the “EC80 plasma concentration of rat striatal occupancy” value ([5]; predicted from rat occupancy Emax PK/PD model) was 1.25 µg/mL and the EC50 ([5]; rat, 0.3 mg/kg oral, Emax model, 95% CI 113 to 128 ng/mL, read-out: EC50 plasma concentration for striatal A2A receptor occupancy (converted)) was 304 nM. For the same compound, the receptor occupancy at 0.175 µg/mL ([5]; rat, read-out: A2A occupancy corresponding to marmoset EC80 of 175 ng/mL) was over 50%.
